These results are taken from PubChem BioAssay (NCI).

Common to all, as to assay: inhibition of tumour cell growth, NCI panel, 48 h
Assay [1] relates to 786-0 renal.
Assay [2] deals with ACHN renal.
In assay [3] the test system is HCC-2998 colon.
The subject of assay [4] is HCT-15 colon.
The subject of assay [5] is HL-60(TB) leukemia.
Assay [6] concerns MALME-3M melanoma.
The test system of assay [7] is MDA-MB-435.
Assay [8] relates to OVCAR-8 ovarian.
For assay [9], the system named is SF-268 CNS.
Assay [10] has as its system MDA-N.
Assay [11] concerns SK-OV-3 ovarian.

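Results reflect a 48-hour exposure of cells in 96-well plates to compound at five concentrations. GI50 = concentration required for 50% inhibition of growth. TGI marks complete inhibition of growth.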 Where only a bound is given, the exact number is not on record here.

Take `N#CC(c1ccccc1)c1cccc2ccccc12` (stereo not given): the TGI was > 100 µM in assay [1]; > 100 µM in [2]; 81.8 µM in assay [3]; > 100 µM in assay [4]; 57.7 µM in [5]; 50.7 µM in assay [6]. Also, the TGI turned out to be 44.1 µM in [7], 76.4 µM in assay [8] and 98.8 µM in assay [9].
As to `O=C1CC(O)c2c(Cl)sc(Cl)c21` (stereo not given), the TGI in [1] is 11.2 µM; in [2] it was 26.2 µM; in assay [3] it was 46.3 µM; in assay [4] it was 11.3 µM; in assay [7], > 47.7 µM; in assay [10], 44.2 µM. Moreover, the figures for the TGI in assay [8], in assay [9] and in assay [11] were 14.2 µM, 17.8 µM and > 100 µM, respectively.
Turning to `Cc1nnc2c3c(-c4ccccc4)c(-c4ccccc4)oc3nc(N(C)C)n12`, the TGI in [1] is > 100 µM; in assay [2], > 100 µM; in assay [3], 60.5 µM; in assay [4] it was > 100 µM; in assay [5], 46.9 µM; in assay [7], > 100 µM. The TGI in assay [8], in [9] and in [11] was > 100 µM in each case.
With `COC(=O)C(Cc1ccccc1)NC(=O)CNC(=O)CSc1nnc(COc2ccc(Cl)cc2)n1-c1ccccc1` (stereo not given), the TGI worked out at 30.5 µM in assay [1]; 27.2 µM in assay [2]; 24.7 µM in assay [3]; 36.4 µM in [4]; 13.7 µM in assay [5]; 34.5 µM in [6]. Further, the TGI in assay [7] was 35 µM; in [8] it was 27.4 µM; in assay [9] it was 33 µM; in assay [11], 28.6 µM.
For `COc1cc(C2c3cc4c(cc3OC(N3CCOCC3)C2C)OCO4)cc(OC)c1O` (stereo not given), the TGI in assay [1] was > 50.4 µM; in assay [2] it was > 74.9 µM; in assay [3], > 57.8 µM; in assay [4], 25.5 µM; in [5], > 26 µM; in assay [6], 16.2 µM. For the same compound, the TGI in assay [7] is 6.27 µM; in [8], > 56.7 µM; in assay [9], > 100 µM; in assay [11], > 50.6 µM.
Regarding `CCOC(=O)/C=C(/C(=O)OCC)n1cc(C)c(=O)n(Cc2cnnn2CCCCOC(C)=O)c1=O`, the TGI in assay [1] is 78.4 µM; in [2] it was 23.9 µM; in assay [4], > 100 µM; in [7] it was 87.2 µM; in assay [10], > 100 µM; in assay [8] it was 55.4 µM. For the same compound, the TGI in assay [9] and in assay [11] was > 100 µM each time.
Take `NCCCCCCNc1cc(-c2cccc(OC(F)(F)F)c2)nc2ccc(N3CCCC3)cc12`: the GI50 in assay [2] was 1.74 µM; in [5], 2.01 µM; in assay [7] it was 1.64 µM. For the same compound, the TGI was determined as 3.11 µM in assay [2], 4 µM in assay [5] and 3.01 µM in assay [7].
As to `CCN(CC)C(=O)CCCCCCCCC1CO1` (stereo not given), the TGI in assay [1], in [2], in assay [4], in [5], in [6] and in [7] was > 100 µM in each case. Further, the TGI in [10], in [8], in assay [9] and in assay [11] was > 100 µM in each case.
For the compound `CC(NCCS(=O)(=O)O)C(=O)O` (stereo not given), the TGI in [3], in [4], in [5], in assay [6], in assay [8] and in assay [9] was > 100 µM in each case. Moreover, in assay [11], the TGI is > 100 µM.
As to `O=C(c1cccs1)N(C(=O)N1CCC(c2ccccc2)CC1)c1ccccc1`, the TGI in assay [1] is > 100 µM; in [2], > 100 µM; in [4], > 100 µM; in assay [5], 91.2 µM; in assay [6] it was > 100 µM; in assay [7], > 100 µM. Moreover, the TGI in [10], in assay [8], in assay [9] and in assay [11] was > 100 µM each time.
As for `CN(C)c1ccc(/C=N/NC2=N/C(=C\c3ccco3)C(=O)N2)cc1`, the TGI in [1], in assay [2], in [4], in assay [5], in assay [6] and in assay [7] was > 100 µM in each case. Also, the TGI in assay [10], in [8], in assay [9] and in assay [11] was > 100 µM each time.
Consider `COC(=O)c1c(O)ccc2c1c1c(n2C)C(=O)c2ccccc2C1=O`, for which the TGI in assay [1] was 57 µM; in [2], 35.8 µM; in assay [3] it was 49.3 µM; in [4], > 100 µM; in [5], > 100 µM; in [6], > 100 µM. Besides, the TGI is > 100 µM in [7], > 100 µM in assay [8], 43.6 µM in assay [9] and 21.5 µM in assay [11].
Take `C=C[C@H]1CN2CC[C@H]1C[C@@H]2[C@@H](O)c1ccnc2ccccc12`: the TGI in assay [1], in assay [2], in assay [4], in assay [5], in [6] and in [7] was > 100 µM each time. The TGI in assay [10], in assay [8], in [9] and in [11] was > 100 µM each time.
`CC(Nc1cc(Cl)cc(Cl)c1)c1ccncc1` (stereo not given): the TGI in [1] was 51.3 µM; in assay [2], 67.6 µM; in assay [3], 37.1 µM; in assay [4], > 100 µM; in [6] it was 54.9 µM; in assay [7], 47.5 µM. The TGI was 45.6 µM in [10], 43 µM in assay [8] and 51.9 µM in [9].
As for `CO[P@]1(=O)O[C@@H](c2ccccc2)[C@H](O)[C@]1(O)c1ccccc1`, the TGI in assay [1], in assay [2], in assay [4], in assay [5], in assay [6] and in assay [7] was > 100 µM in each case. Further, the TGI in assay [10], in assay [8], in assay [9] and in assay [11] was > 100 µM throughout.
Turning to `COc1ccc(CNc2nc3ccccc3nc2-c2cccs2)cc1`, the TGI in assay [1], in assay [2], in [3], in assay [4], in assay [5] and in assay [6] was > 100 µM throughout. Also, the TGI in assay [7], in assay [8], in assay [9] and in [11] was > 100 µM each time.
Regarding `Nc1nc(N)c2ncn(CC(CO)CC(c3ccccc3)P(=O)(O)O)c2n1` (stereo not given), the TGI in assay [2], in assay [3], in assay [4], in assay [5], in assay [6] and in assay [8] was > 100 µM each time. For the same compound, the TGI in assay [9] and in assay [11] was > 100 µM in each case.
As for `CC(=O)O[C@H]1/C(=C/c2ccc(N(C)C)cc2)C[C@H]2[C@@H]3CC=C4C[C@@H](N5CCCC5)CC[C@]4(C)[C@H]3CC[C@]12C`, the TGI in assay [1], in assay [2], in [4], in assay [5], in assay [6] and in assay [8] was > 100 µM in each case. The TGI in assay [9] and in assay [11] was > 100 µM throughout.
For the compound `CCCCCCCCCC[C@@H](O)[C@@H]1CC[C@@H]([C@@H]2CC[C@@H]([C@@H](O)CCCCCCCCCCC(O)CC3=CC(C)OC3=O)O2)O1` (stereo not given in full), the TGI in assay [2] was > 10 µM; in assay [3], > 10 µM; in assay [4], > 10 µM; in [5], 1.85 µM; in assay [6], > 10 µM; in assay [8] it was > 10 µM. The TGI in assay [9] and in [11] was > 10 µM in each case.
On to `COc1ccc(-c2cn3ccnc3c(-c3ccc4ncn(C5CCCCC5)c4c3)n2)cc1`, for which the GI50 in [2] was 0.692 µM; in [3] it was 2.92 µM; in assay [4] it was 0.722 µM; in assay [5], 1.06 µM; in assay [6], 43.1 µM; in assay [7], 0.312 µM. The GI50 in [8] is 3.16 µM; in [9], 2.38 µM; in assay [11], 0.508 µM. The TGI was > 100 µM in assay [2]; > 100 µM in assay [3]; > 100 µM in [4]; 5.05 µM in [5]; > 100 µM in assay [6]; > 100 µM in assay [7]. The results for the TGI in assay [8], in [9] and in assay [11] were > 100 µM, > 100 µM and 7.64 µM, respectively.
Regarding `C/C(=N/O)c1cccc(Nc2nc3ccccc3c3[nH]c4ccccc4c23)c1`, the TGI in assay [1] stood at 6.96 µM; in assay [2], 7.17 µM; in assay [4], 10.6 µM; in assay [5], 8.23 µM; in assay [6] it was 13.8 µM; in assay [7] it was 7.52 µM. For the same compound, the TGI in assay [10] is 7.56 µM; in [8], > 24.4 µM; in assay [9], 6.24 µM; in assay [11], 22.1 µM.
Regarding `c1ccc(N=NNNc2ccc(-c3nc4ccccc4[nH]3)cc2)cc1`, the TGI was > 100 µM in [1]; > 100 µM in assay [2]; > 100 µM in assay [4]; 62.1 µM in assay [5]; 77.3 µM in assay [6]; > 100 µM in assay [7]. The TGI in assay [10], in assay [8] and in assay [11] was > 100 µM throughout.
For the compound `COc1nc2c(c(=O)n1C)N[C@@H]1[C@@H](O)[C@H](O)CO[C@@H]1N2`, the TGI in assay [1], in assay [4], in assay [5], in assay [6], in [7] and in assay [10] was > 100 µM throughout. Besides, the TGI in assay [8], in assay [9] and in assay [11] was > 100 µM throughout.
For the compound `CCN(CC)CCNc1ccc(N=Nc2ccc(S(N)(=O)=O)cc2)c2ccccc12`, the TGI in [1] is > 100 µM; in assay [2], 38.8 µM; in [3], 29.1 µM; in assay [4] it was > 100 µM; in [5] it was 36.9 µM; in assay [6], 36 µM. For the same compound, the TGI in assay [7] amounted to 23.6 µM; in assay [8] it was 21.3 µM; in assay [9], 37.8 µM.
As to `O=C1NC(N2CCOCC2)=N/C1=C\c1ccccc1O`, the TGI in assay [1], in assay [2], in [4], in assay [5], in assay [6] and in [7] was > 100 µM each time. Moreover, the TGI in assay [10], in assay [8], in assay [9] and in assay [11] was > 100 µM in each case.
`Cc1ccc2[nH]c(=O)c(-c3cnc(=O)[nH]n3)c(O)c2c1`: the TGI in assay [1], in assay [2], in [4], in [5], in assay [6] and in assay [7] was > 100 µM throughout. For the same compound, the TGI in assay [10], in [8], in assay [9] and in assay [11] was > 100 µM each time.
On to `CCCCNC(=S)Nc1nc(C(=O)NNS(=O)(=O)c2ccccc2)cs1`, for which the TGI in assay [1] was > 100 µM; in [2], 85.5 µM; in assay [3] it was 97.7 µM; in assay [4] it was > 100 µM; in assay [6], > 100 µM; in assay [7] it was 48.4 µM. The TGI in [8], in assay [9] and in assay [11] was > 100 µM throughout.
As to `S=C1CC(c2ccc(Cl)cc2)Sc2ccccc2N1` (stereo not given), the TGI in assay [1], in assay [2], in [4], in assay [5], in [6] and in assay [7] was > 100 µM in each case. The TGI in assay [10] was > 100 µM; in assay [8] it was > 100 µM; in assay [9], 79.3 µM; in assay [11], 56.9 µM.
